Data on 13 compounds can be found in ChEMBL document CHEMBL3217507, “3,3-Dimethyl-1H-pyrrolo[3,2-g]quinolin-2(3H)-one derivatives as novel Raf kinase inhibitors” (Medchemcomm, 2013).

The structures appear in SMILES notation.

What is called IC50 is the concentration that inhibits the measured activity by half. For orientation: inhibition means the drop in the measured response relative to a control, in per cent. Low values mean little suppression, high ones strong suppression.

The target in assay [1] is RAF proto-oncogene serine/threonine-protein kinase (Homo sapiens) (UniProt P04049). In words: Inhibition of c-RAF (unknown origin) using [33P]ATP by […] assay.
Sequence of RAF proto-oncogene serine/threonine-protein kinase (Homo sapiens) (P04049 whole entry): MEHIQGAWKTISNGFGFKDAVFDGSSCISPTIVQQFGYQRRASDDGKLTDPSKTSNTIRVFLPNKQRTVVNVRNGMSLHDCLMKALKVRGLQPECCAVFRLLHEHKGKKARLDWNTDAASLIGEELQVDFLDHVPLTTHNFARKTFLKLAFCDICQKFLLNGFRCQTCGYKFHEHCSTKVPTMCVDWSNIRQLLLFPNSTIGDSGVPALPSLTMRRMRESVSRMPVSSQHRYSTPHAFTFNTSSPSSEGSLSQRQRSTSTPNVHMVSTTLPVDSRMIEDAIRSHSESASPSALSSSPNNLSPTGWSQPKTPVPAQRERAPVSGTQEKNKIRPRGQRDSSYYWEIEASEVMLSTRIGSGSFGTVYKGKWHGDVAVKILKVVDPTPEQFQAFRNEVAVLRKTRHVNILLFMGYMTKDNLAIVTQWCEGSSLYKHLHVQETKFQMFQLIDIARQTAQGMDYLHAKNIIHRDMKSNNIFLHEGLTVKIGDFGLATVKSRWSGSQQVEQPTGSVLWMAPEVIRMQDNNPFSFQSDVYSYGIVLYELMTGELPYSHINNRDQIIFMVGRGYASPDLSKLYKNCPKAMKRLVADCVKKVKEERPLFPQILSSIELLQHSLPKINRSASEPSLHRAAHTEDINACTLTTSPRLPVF
For assay [2], the system named is A549. In words: Cytotoxicity against human A549 cells after 72 hrs by MTT assay. Type of assay: functional, cell-based. Particulars: A549, 72 h. (In general: Tetrazolium assays rely on reduction of a dye to a coloured formazan, in cell work by metabolically active cells.)
The subject of assay [3] is HepG2. In words: Cytotoxicity against human HepG2 cells after 72 hrs by MTT assay. The format is functional, cell-based. The note with it: HepG2, 72 h.
Assay [4] in a line: Cytotoxicity against human KCC-853 cells after 72 hrs by MTT assay. Type of assay: functional, cell-based. Particulars: KCC-853, 72 h.
Assay [5] addresses Focal adhesion kinase 1 (Homo sapiens) (UniProt Q05397). In words: Inhibition of PTK2 (unknown origin) at 10 uM.
The target of assay [6] is Serine/threonine-protein kinase PLK1 (Homo sapiens) (UniProt P53350). Briefly: Inhibition of PLK1 (unknown origin) at 10 uM.
Sequence of Serine/threonine-protein kinase PLK1 (Homo sapiens) (P53350 whole entry): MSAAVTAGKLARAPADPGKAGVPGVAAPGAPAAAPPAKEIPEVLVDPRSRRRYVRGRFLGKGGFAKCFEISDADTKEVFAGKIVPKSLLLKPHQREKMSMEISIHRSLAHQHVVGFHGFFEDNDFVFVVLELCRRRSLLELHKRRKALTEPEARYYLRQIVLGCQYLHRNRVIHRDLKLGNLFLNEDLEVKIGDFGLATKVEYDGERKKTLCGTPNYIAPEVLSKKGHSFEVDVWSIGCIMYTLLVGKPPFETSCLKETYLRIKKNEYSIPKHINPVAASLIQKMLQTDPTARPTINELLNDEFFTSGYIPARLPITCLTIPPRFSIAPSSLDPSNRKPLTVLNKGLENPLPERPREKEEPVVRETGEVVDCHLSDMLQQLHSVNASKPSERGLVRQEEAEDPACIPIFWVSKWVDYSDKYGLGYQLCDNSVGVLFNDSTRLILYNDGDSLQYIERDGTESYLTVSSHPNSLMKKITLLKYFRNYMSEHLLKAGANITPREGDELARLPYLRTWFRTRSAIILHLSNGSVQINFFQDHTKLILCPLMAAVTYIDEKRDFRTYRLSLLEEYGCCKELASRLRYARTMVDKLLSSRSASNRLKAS
In assay [7] the target is Inhibitor of nuclear factor kappa-B kinase subunit beta (Homo sapiens) (UniProt O14920). Briefly: Inhibition of IKKbeta (unknown origin) at 10 uM.
Sequence of Inhibitor of nuclear factor kappa-B kinase subunit beta (Homo sapiens) (O14920 whole entry): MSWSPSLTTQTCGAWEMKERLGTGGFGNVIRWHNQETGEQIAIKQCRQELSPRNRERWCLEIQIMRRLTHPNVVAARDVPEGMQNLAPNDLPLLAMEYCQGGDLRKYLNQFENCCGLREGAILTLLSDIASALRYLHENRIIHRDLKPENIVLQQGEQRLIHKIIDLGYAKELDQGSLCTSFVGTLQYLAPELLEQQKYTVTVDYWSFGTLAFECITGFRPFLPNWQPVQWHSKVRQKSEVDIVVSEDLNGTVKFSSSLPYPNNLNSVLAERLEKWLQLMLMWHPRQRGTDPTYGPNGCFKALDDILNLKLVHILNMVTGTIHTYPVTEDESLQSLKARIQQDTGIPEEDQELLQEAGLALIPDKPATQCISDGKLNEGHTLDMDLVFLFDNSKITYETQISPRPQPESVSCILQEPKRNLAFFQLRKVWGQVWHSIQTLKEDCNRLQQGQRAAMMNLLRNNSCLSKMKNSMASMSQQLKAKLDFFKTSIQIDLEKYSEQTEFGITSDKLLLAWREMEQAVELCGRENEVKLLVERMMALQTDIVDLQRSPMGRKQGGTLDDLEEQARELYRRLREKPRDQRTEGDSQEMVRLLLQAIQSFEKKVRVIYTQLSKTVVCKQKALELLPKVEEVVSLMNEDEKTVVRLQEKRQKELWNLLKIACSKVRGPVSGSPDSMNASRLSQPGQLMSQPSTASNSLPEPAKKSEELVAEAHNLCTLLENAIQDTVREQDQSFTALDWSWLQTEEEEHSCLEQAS
The species named for assay [8] is Homo sapiens. In words: Inhibition of PKA (unknown origin) at 10 uM.
Assay [9] has as its target Fibroblast growth factor receptor 1 (Homo sapiens) (UniProt P11362). Briefly: Inhibition of FGFR1 (unknown origin) at 10 uM.
Assay [10] addresses Vascular endothelial growth factor receptor 2 (Homo sapiens) (UniProt P35968). Briefly: Inhibition of VEGFR2 (unknown origin) at 10 uM.
Assay [11] has as its target Tyrosine-protein kinase ABL1 (Homo sapiens) (UniProt P00519). In words: Inhibition of ABL1 (unknown origin) at 10 uM.
Assay [12] has as its target Tyrosine-protein kinase JAK2 (Homo sapiens) (UniProt O60674). In words: Inhibition of JAK2 (unknown origin) at 10 uM.
The target of assay [13] is Macrophage colony-stimulating factor 1 receptor (Homo sapiens) (UniProt P07333). In words: Inhibition of FMS (unknown origin) at 10 uM.
Assay [14] has as its target Tyrosine-protein kinase Fyn (Homo sapiens) (UniProt P06241). In words: Inhibition of FYN (unknown origin) at 10 uM.
Assay [15] deals with Mast/stem cell growth factor receptor Kit (Homo sapiens) (UniProt P10721). In words: Inhibition of c-Kit (unknown origin) at 10 uM.
Assay [16] deals with Tyrosine-protein kinase SYK (Homo sapiens) (UniProt P43405). Briefly: Inhibition of SYK (unknown origin) at 10 uM.
Assay [17] addresses Angiopoietin-1 receptor (Homo sapiens) (UniProt Q02763). Briefly: Inhibition of TIE2 (unknown origin) at 10 uM.
The target of assay [18] is Vascular endothelial growth factor receptor 2 (Homo sapiens) (UniProt P35968). In words: Inhibition of KDR (unknown origin) at 10 uM.
Sequence of Vascular endothelial growth factor receptor 2 (Homo sapiens) (P35968 whole entry): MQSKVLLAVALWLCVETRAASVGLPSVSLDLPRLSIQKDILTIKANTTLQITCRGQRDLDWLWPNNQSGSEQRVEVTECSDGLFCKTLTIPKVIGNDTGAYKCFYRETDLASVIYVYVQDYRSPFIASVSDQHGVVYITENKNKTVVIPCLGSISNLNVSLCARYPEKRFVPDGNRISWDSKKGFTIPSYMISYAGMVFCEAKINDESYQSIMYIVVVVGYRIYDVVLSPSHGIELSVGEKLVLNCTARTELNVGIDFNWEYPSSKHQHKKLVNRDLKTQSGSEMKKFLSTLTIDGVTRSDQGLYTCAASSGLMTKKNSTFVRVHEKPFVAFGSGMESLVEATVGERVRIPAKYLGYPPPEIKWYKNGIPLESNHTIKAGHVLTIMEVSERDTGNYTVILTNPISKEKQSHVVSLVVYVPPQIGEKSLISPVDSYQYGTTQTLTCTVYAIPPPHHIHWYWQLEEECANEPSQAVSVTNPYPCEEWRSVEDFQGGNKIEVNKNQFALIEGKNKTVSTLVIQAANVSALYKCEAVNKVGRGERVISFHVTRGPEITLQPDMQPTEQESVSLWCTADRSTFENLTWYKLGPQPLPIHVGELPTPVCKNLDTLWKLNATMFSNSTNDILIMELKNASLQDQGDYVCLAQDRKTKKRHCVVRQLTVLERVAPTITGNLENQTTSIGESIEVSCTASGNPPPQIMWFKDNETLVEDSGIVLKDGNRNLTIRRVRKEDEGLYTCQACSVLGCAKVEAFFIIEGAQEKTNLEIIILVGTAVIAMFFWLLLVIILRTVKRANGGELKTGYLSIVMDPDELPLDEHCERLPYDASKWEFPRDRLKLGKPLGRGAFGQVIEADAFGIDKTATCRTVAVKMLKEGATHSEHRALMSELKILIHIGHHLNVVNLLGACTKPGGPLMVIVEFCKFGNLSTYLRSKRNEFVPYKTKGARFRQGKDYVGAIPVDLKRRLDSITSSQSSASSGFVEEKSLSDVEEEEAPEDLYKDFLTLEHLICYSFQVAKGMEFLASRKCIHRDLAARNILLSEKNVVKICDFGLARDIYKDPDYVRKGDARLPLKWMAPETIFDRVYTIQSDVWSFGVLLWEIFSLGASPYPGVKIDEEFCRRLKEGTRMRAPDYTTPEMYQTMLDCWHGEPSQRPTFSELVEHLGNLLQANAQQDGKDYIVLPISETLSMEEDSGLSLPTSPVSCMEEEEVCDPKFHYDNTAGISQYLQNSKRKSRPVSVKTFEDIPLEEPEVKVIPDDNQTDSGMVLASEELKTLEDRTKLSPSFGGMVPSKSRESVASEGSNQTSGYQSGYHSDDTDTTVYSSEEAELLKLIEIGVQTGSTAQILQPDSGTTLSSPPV
Assay [19] addresses RAC-alpha serine/threonine-protein kinase (Homo sapiens) (UniProt P31749). Briefly: Inhibition of AKT1 (unknown origin) at 10 uM.
Assay [20] deals with Hepatocyte growth factor receptor (Homo sapiens) (UniProt P08581). Briefly: Inhibition of c-MET (unknown origin) at 10 uM.
Assay [21] has as its target RAF proto-oncogene serine/threonine-protein kinase (Homo sapiens) (UniProt P04049). Briefly: Inhibition of c-RAF (unknown origin) at 10 uM.
The target of assay [22] is Platelet-derived growth factor receptor alpha (Homo sapiens) (UniProt P16234). Briefly: Inhibition of PDGFR-alpha (unknown origin) at 10 uM.
The target in assay [23] is Receptor-type tyrosine-protein kinase FLT3 (Homo sapiens) (UniProt P36888). In words: Inhibition of FLT3 (unknown origin) at 10 uM.
Assay [24] deals with Cyclin-dependent kinase 2 (Homo sapiens) (UniProt P24941). Briefly: Inhibition of CDK2 (unknown origin) at 10 uM.

Sequence of Fibroblast growth factor receptor 1 (Homo sapiens) (P11362 22-822 limits assumed): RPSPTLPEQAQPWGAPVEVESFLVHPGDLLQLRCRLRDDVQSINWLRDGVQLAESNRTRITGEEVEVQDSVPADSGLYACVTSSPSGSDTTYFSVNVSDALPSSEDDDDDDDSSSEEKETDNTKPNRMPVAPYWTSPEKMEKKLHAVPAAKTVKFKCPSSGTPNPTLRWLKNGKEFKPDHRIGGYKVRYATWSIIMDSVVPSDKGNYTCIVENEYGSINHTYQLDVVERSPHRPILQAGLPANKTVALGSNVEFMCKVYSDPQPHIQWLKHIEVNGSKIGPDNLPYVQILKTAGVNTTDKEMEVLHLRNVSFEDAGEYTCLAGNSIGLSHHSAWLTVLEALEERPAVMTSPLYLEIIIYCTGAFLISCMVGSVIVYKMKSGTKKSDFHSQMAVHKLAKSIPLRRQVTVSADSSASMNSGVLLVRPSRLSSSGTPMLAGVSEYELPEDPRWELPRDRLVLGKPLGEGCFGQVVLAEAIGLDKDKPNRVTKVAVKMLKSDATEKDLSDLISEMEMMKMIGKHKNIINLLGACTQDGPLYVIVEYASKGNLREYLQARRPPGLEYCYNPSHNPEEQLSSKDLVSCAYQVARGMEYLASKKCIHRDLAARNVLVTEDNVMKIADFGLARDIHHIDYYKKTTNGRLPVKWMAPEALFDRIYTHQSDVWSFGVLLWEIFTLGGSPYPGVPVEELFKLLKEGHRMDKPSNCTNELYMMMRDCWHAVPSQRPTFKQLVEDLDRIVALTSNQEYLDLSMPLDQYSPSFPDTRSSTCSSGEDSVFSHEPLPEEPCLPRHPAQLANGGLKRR
Sequence of RAC-alpha serine/threonine-protein kinase (Homo sapiens) (P31749 whole entry): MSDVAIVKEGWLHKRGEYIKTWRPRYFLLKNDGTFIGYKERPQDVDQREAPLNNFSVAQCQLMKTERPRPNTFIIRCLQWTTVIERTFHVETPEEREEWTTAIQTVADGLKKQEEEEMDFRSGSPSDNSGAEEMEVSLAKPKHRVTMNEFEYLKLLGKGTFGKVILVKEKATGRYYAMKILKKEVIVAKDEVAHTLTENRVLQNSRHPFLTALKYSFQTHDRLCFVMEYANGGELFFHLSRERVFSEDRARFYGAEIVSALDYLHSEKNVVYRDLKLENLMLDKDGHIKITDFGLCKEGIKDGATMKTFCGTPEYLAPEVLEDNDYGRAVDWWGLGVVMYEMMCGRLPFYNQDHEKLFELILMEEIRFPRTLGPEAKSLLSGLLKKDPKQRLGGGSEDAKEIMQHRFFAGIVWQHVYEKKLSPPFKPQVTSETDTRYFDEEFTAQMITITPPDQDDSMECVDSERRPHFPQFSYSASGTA

As to `Cc1cccc(C)c1NC(=O)Nc1ccc(Oc2ccnc3cc4c(cc23)C(C)(C)C(=O)N4)c(F)c1`, the IC50 stood at 0.0303 µM in assay [1], 4.07 µM in [2], 10.3 µM in assay [3] and 3.75 µM in [4].
The like results for `Cc1cccc(C)c1NC(=O)Nc1ccc(Oc2ccnc3cc4c(cc23)C(C)(C)C(=O)N4)c(Cl)c1` were, in that order, 0.0281 µM, 3.85 µM, 11.2 µM and 4.39 µM.
As for `Cc1cc(NC(=O)Nc2ccc(Oc3ccnc4cc5c(cc34)C(C)(C)C(=O)N5)c(Cl)c2)no1`, the IC50 in assay [1] came out at 0.0187 µM; in [2] it was 5.76 µM; in assay [3] it was 8.46 µM; in assay [4], 5.86 µM.
The like results for `CC1(C)C(=O)Nc2cc3nccc(Oc4ccc(NC(=O)Nc5ccc(F)c(C(F)(F)F)c5)cc4F)c3cc21` were, in that order, 0.0159 µM, 2.16 µM, 8.09 µM and 2.85 µM.
As to `CC1(C)C(=O)Nc2cc3nccc(Oc4ccc(NC(=O)Nc5cccc(F)c5)cc4)c3cc21`, the IC50 in assay [1] was 0.0373 µM; in [2] it was 5.46 µM; in assay [3], 12 µM; in [4], 10.6 µM.
The like results for `CC1(C)C(=O)Nc2cc3nccc(Oc4ccc(NC(=O)Nc5cccc(F)c5)cc4F)c3cc21` were, in that order, 0.0252 µM, 7.71 µM, 15.5 µM and 5.64 µM.
On to `CC1(C)C(=O)Nc2cc3nccc(Oc4ccc(NC(=O)Nc5cccc(F)c5)cc4Cl)c3cc21`, for which the half-maximal inhibitory concentration (IC50) in assay [1] is 0.0221 µM; in assay [2], 4.38 µM; in assay [3] it was 7.35 µM; in assay [4], 6.49 µM.
The like results for `Cc1cccc(C)c1NC(=O)Nc1ccc(Oc2ccnc3cc4c(cc23)C(C)(C)C(=O)N4)cc1` were, in that order, 0.0521 µM, 10.5 µM, 20.3 µM and 10.3 µM.
For `CC1(C)C(=O)Nc2cc3nccc(Oc4ccc(NC(=O)Nc5ccc(F)c(C(F)(F)F)c5)cc4)c3cc21`, the IC50 was found to be 0.0147 µM in assay [1], 3.2 µM in assay [2], 9.56 µM in assay [3] and 4.23 µM in [4].
The like results for `Cc1cc(NC(=O)Nc2ccc(Oc3ccnc4cc5c(cc34)C(C)(C)C(=O)N5)cc2)no1` were, in that order, 0.0585 µM, 6.47 µM, 31.7 µM and 10.1 µM.
The like results for `CNC(=O)c1cc(Oc2ccc(NC(=O)Nc3ccc(Cl)c(C(F)(F)F)c3)cc2)ccn1` [SORAFENIB] were, in that order, 0.0285 µM, 5.23 µM, 12.7 µM and 6.78 µM.
Consider `Cc1cc(NC(=O)Nc2ccc(Oc3ccnc4cc5c(cc34)C(C)(C)C(=O)N5)c(F)c2)no1`, for which the IC50 in assay [1] came out at 0.0272 µM; in [2] it was 5.03 µM; in assay [3], 12 µM; in assay [4], 4.18 µM.
`CC1(C)C(=O)Nc2cc3nccc(Oc4ccc(NC(=O)Nc5ccc(F)c(C(F)(F)F)c5)cc4Cl)c3cc21`: the inhibition in assay [5] is 3.6%; in assay [6], 4.9%; in assay [7], 4.7%; in assay [8], 1.3%; in assay [9], 20.2%; in [10] it was 34.1%. The inhibition in assay [11] was 26.2%; in assay [12], 0.2%; in assay [13], 46.9%; in assay [14], 0.6%; in assay [15], 18.7%; in assay [16], 15%. The inhibition was determined as 22.3% in assay [17]; 1.4% in assay [18]; 16.5% in assay [19]; 1.5% in assay [20]; 94.6% in assay [21]; 0.3% in [22]. Moreover, the inhibition in [23] came to 15.3%; in assay [24], 7.8%. Also, the IC50 in [1] was 0.0087 µM; in assay [2], 0.916 µM; in assay [3], 6.36 µM; in assay [4], 1.1 µM.
